# Measurements published in patent publication US8987285B2, “Pharmaceutical compositions, dosage forms and new forms of the compound of formula (I), and methods of use thereof” (Portola Pharmaceuticals, Inc., priority 2010, dated 2015).
# Like-named read-outs stand apart in the source and are kept apart here.
# Columns and labels:
# [1] = Aqueous solubility of the free acid versus pH; format: physicochemical; details: aqueous buffer
# From the text: […]. […] In certain instances, the active agent is initially present at least partly in an ionized form. In certain other instances, the active agent is initially present in an un-ionized form.
# [2] = Wettability: contact angle measurement with water on pressed powder; format: physicochemical; details: water, in ° (unit assumed)
# Method: Contact angel instrument: EasyDrop DSA15E (Krüss, Hamburg, Germany)
# Syringe: NE44, diameter of needle 0.5 mm (Krüss, Hamburg, Germany)
# The powder was pressed (approx 50 mg powder, 3 tons, 2 min) in tablets and analyzed by contact angle measurement. The angel between the solid and the liquid is measured after 0 and up to 60 seconds using water.
# All determinations used the above method and the limit for the standards measurements are well within the given limits.
# [3] = Saturation solubility, shake-flask with UV quantification; format: physicochemical; details: for solubility at 72 h: thermodynamic from solid
# Method: The FaSSIF and FeSSIF solutions were prepared using Phares SIF powder according to the formulation instructions and the SGF solution was prepared using the guidelines provided. […] The pH and temperature of the supernatant were measured on a SiriusT3 instrument.
# [4] = Pharmacokinetic Study 1: FMI tablets fasted/fed versus reference IR capsule, crossover, healthy adult volunteers; format: in vivo, human; details: for Geometric-mean ratio (Fed/Fasted) of AUCinf / Geometric-mean ratio (Fed/Fasted) of AUClast / Geometric-mean ratio (Fed/Fasted) of Cmax: high fat breakfast versus fasted
# Method: This was an open label, randomized, four-period, incomplete crossover, single center study in healthy adult volunteers. There were 4 treatments in the study: 3 doses of the FMI (given fasting or fed following a high-fat breakfast) and one reference IR capsule (given fed after a typical breakfast). The term “FMI” refers to the dosage form of Example 7 (30 mg FMI) or Example 8 (75 mg FMI).
# Each subject was randomized to 1 of 18 treatment sequences, each with 4 treatment periods (Table 27). The first treatment period consisted of 1 of the 3 doses of FMI given fed, and treatment periods 2 to 4 consisted of 1 dose of IR capsule (fed) and 2 of the 3 doses of the FMI given fasted. […] Each subject therefore had 2 fasting treatments with the FMI formulation, 1 fed treatment with the FMI formulation and a reference treatment (IR capsule). Seventy two subjects enrolled and were dosed in the study with 70 completers.
# The study consisted of a 28-day screening period, four baseline periods (one before each treatment period), four treatment periods with a wash out period of a minimum of 5 days, followed by a study completion evaluation approximately 72 hours after the last drug administration. Subjects who met the eligibility criteria at screening were admitted to baseline evaluations. All baseline safety evaluation results were available prior to dosing.
# For fasted administration, elinogrel was administered in the morning, following an overnight fast of at least 10 hours. Subjects continued to fast until 4 hours post-dose. For fed administration of FMI tablets, elinogrel was administered in the morning, within 30 minutes of a high fat breakfast (approximately 1000 calories). Subjects continued to fast until 4 hours post-dose. For fed administration of the reference (IR capsule), it was administered in the morning, within 30 minutes of a typical breakfast (approximately 500 calories). Subjects continued to fast until 4 hours post-dose.
# Subjects were admitted to the study site approximately 12 hours prior to dosing in each period for baseline evaluations. Following a single dose of elinogrel, PK assessments were taken up to 48 hours post dose and safety assessments were made for up to 72 hours.
# Subjects were domiciled for 24 hours post dosing for PK sample collection, at which time they were discharged from the study site. Subjects returned on the following 2 mornings for 48 hour PK and 72 hour safety samples. Following the 72 hour safety assessments of treatment period 4 (or in the case of subject discontinuation) subjects underwent study completion evaluations and were discharged from the study. […].
# This was a three-period, four-treatment crossover study design with an add-on food effect period (Period 1).
# Treatment 1 (T1)=elinogrel 30 mg FMI dose fasting
# Treatment 2 (T2)=elinogrel 75 mg FMI dose fasting
# Treatment 3 (T3)=elinogrel 150 mg FMI dose fasting
# Reference (R)=elinogrel 150 mg IR capsule dose fed (typical breakfast); Example 6 (Reference)
# Fed treatment 1 (F1)=elinogrel 30 mg FMI dose fed (high fat breakfast)
# Fed treatment 2 (F2)=elinogrel 75 mg FMI dose fed (high fat breakfast)
# Fed treatment 3 (F3)=elinogrel 150 mg FMI dose fed (high fat breakfast)
# Subjects will received the following treatments in a randomized order: • Treatment (T1, F1) with IR (IR=immediate release) tablet of Example 7 containing pH-modifying alkalizing agent, 30 mg in fasted and fed state. • Treatment (T2, F2) with IR (IR=immediate release) tablet of Example 8 containing pH-modifying alkalizing agent, 75 mg in fasted and fed state • Treatment (R) with 2×IR (IR=immediate release) capsule of Example 6 (Reference): 2×75 mg (150 mg) in fed state. • Treatment (T3, F3) with 2×IR (IR=immediate release) tablet of Example 8 containing pH-modifying alkalizing agent, 2×75 mg (150 mg) in fasted and fed state.
# To evaluate the food effect, the geometric mean ratio for PK parameters of the fed versus fasted for each dose level and its 90% CI was estimated as shown in Table 29 below.
structure (smiles),measurement,setting,value
"CNc1cc2[nH]c(=O)n(-c3ccc(NC(=O)NS(=O)(=O)c4ccc(Cl)s4)cc3)c(=O)c2cc1F [compound of formula (II), elinogrel]",solubility,"[1]; pH 1.0-7.4, read-out: aqueous solubility of the free acid form",< 100 µg/mL
same,solubility,"[1]; pH 8 or above, read-out: aqueous solubility",≥ 1000 µg/mL
same,Contact angle,[2]; 0 sec,65.9
same,Contact angle,[2]; 30 sec,60.8
same,Contact angle,[2]; 60 sec,60.1
same,final pH measured of the supernatant,[3]; FaSSIF pH 6.5-1w,6.42
same,final pH measured of the supernatant,[3]; FeSSIF pH 5.0-1w,4.97
same,final pH measured of the supernatant,[3]; Na Phosphate pH 6.8,6.80
same,final pH measured of the supernatant,[3]; Na-Acetate pH 4.5,4.53
same,final pH measured of the supernatant,[3]; SGF pH 2.1,2.21
same,solubility at 72 h,"[3]; aqueous buffer, Na Phosphate pH 6.8, mean N = 2",11.3 µg/mL
same,solubility at 72 h,"[3]; aqueous buffer, Na-Acetate pH 4.5, mean N = 2",0.89 µg/mL
same,solubility at 72 h,"[3]; simulated gastric fluid, SGF pH 2.1, mean N = 2",0.48 µg/mL
same,solubility at 72 h,"[3]; FaSSIF pH 6.5-1w, mean N = 2",25.2 µg/mL
same,solubility at 72 h,"[3]; FeSSIF pH 5.0-1w, mean N = 2",6 µg/mL
same,decrease of AUC by high fat meal,[4]; 30 mg dose,44-52%
same,decrease of Cmax by high fat meal,[4]; 30 mg dose,58%
same,decrease of AUC by high fat meal,[4]; 75 mg dose,14-18%
same,decrease of Cmax by high fat meal,[4]; 75 mg dose,36%
same,decrease of AUC by high fat meal,[4]; 150 mg dose,29-30%
same,decrease of Cmax by high fat meal,[4]; 150 mg dose,48%
same,Geometric-mean ratio (Fed/Fasted) of AUCinf,[4]; FMI 30 mg,0.48
same,Geometric-mean ratio (Fed/Fasted) of AUClast,[4]; FMI 30 mg,0.56
same,Geometric-mean ratio (Fed/Fasted) of Cmax,[4]; FMI 30 mg,0.42
same,Geometric-mean ratio (Fed/Fasted) of AUCinf,[4]; FMI 75 mg,0.86
same,Geometric-mean ratio (Fed/Fasted) of AUClast,[4]; FMI 75 mg,0.82
same,Geometric-mean ratio (Fed/Fasted) of Cmax,[4]; FMI 75 mg,0.64
same,Geometric-mean ratio (Fed/Fasted) of AUCinf,[4]; FMI 150 mg,0.71
same,Geometric-mean ratio (Fed/Fasted) of AUClast,[4]; FMI 150 mg,0.70
same,Geometric-mean ratio (Fed/Fasted) of Cmax,[4]; FMI 150 mg,0.52
